Data from patent US9551711B2, “Compositions and methods for detecting nitration of PKG-1α and methods of use thereof” (Augusta University Research Institute, Inc., priority 2013, dated 2017).

Columns and labels:
3-NT-Y247-PKG-1α = 3-NT-Y247-PKG-1α immunoblot in transfected PASMC; type: cell-based, lamb; settings: SIN-1 500 μM, 30 min
PKG-1α [1] = molecular target: T1, PKG-1α (Homo sapiens, UniProt Q13976); experiment: PKG activity in transfected HEK-293T cells; type: cell-based; design: an expression plasmid containing a full length WT-PKG-1α cDNA; made in house; host or cells: HEK-293T; settings: HEK-293T expressing WT-PKG-1α; SIN-1 500 μM, 30 min
T1 sequence (Q13976 2-671): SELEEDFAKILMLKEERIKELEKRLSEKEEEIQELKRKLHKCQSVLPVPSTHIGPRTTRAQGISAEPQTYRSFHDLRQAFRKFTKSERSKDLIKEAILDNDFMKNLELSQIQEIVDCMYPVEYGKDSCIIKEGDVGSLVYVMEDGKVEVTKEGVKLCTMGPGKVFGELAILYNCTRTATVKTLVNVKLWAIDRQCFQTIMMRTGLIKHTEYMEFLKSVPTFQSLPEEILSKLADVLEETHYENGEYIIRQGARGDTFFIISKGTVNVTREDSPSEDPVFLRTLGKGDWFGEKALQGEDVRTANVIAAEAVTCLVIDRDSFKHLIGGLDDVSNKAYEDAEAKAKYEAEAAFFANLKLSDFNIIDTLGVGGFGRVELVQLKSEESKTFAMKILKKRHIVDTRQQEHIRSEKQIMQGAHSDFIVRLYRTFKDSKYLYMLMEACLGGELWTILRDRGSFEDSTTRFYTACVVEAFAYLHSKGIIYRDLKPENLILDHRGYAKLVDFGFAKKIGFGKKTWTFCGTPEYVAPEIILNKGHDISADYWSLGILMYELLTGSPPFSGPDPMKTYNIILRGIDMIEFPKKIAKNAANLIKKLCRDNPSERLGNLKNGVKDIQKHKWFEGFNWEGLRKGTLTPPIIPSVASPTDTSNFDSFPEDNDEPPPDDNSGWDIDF
Experimental: To determine the role of tyrosine 247 and tyrosine 425 in mediating the nitration dependent inhibition of PKG-1α kinase activity, Y247F- and Y425F-PKG-1α mutants were generated and expressed in HEK-293T cells. HEK-293T cells were transiently transfected with expression plasmids containing WT-, Y247F-, or Y425F-PKG-1α for 48 h. […] Protein extracts were immunoprecipitated using an antibody raised against PKG-1α and the level of nitrated PKG-1α determined by probing the membranes with an antiserum raised against 3-NT. The blots were then stripped and re-probed for PKG-1α to normalize for the efficiency of the immunoprecipitation.
Total PKG activity was determined using a non-radioactive immunoassay in cell lysates, according to the manufacturer's directions. […]
(§1) After incubation for 30 min at 30° C. to allow the phosphorylation of the bound substrate, an HRP conjugated anti-phosphothreonine specific antibody was added to convert a chromogenic substrate to a colorimetric substrate that was subsequently read spectrophotometrically at 450 nm. The change in absorbance reflected the relative activity of PKG in the sample. […] The kinetic constants were determined using nonlinear regression (curve fit) analysis (GraphPad Prism Software Inc.).

PKG-1α [2] = molecular target: T1, PKG-1α; experiment: PKG catalytic activity, Michaelis-Menten kinetics for cGMP; type: biochemical; design: an expression plasmid containing a full length WT-PKG-1α cDNA; made in house; host or cells: HEK-293T; the results paragraph b304 says PASMC
Experimental: Total PKG activity was determined using a non-radioactive immunoassay in cell lysates, according to the manufacturer's directions. Briefly, protein samples were diluted in kinase reaction buffer containing Mg^2+ and ATP (125 μM) in the presence or absence of 8-Br cGMP (10 μM) and incubated in a 96 well plate pre-coated with a PKG substrate containing threonine residues phosphorylated by PKG.
as §1, with “sample. The results were reported as pmols of phosphate incorporated into the GST-G substrate fusion protein by active PKG in the sample in the presence or absence of cGMP (10 μM) per minute at 30° C. per μg of protein (pmol/min/μg).” for “sample.”
To determine the Michaelis-Menten constant (Km) for cGMP, the kinase assay was performed, as mentioned above; however, the cGMP concentration was titrated from 0-10 μM, while the ATP concentration remained constant at 125 μM.

cGMP dependent PKG activity (PKG-1α [1]): attenuated | Vmax of the reaction (PKG-1α [2]; WT PKG-1α after SIN-1 challenge, ATP 125 μM, cGMP 0-10 μM): 0.28 pmol/min/µg | Km (PKG-1α [2]; WT-PKG-1α upon SIN-1 treatment, read-out: Michaelis-Menten constant (Km) for cGMP): 8.91 nM
Substance: 3-morpholinosydnonimine N-ethylcarbamide [SIN-1]
PKG-1α nitration (3-NT-Y247-PKG-1α levels) (3-NT-Y247-PKG-1α; PASMC transfected with WT-PKG-1α): significantly increased | nitration levels of 3-NT-Y247-PKG-1α (3-NT-Y247-PKG-1α; PASMC, second construct of FIG. 4A): no significant increases
